Source: patent publication US20220304992A1, “METHODS OF REJUVENATING AGED TISSUE BY INHIBITING 15-HYDROXYPROSTAGLANDIN DEHYDROGENASE (15-PGDH)” (The Board of Trustees of the Leland Stanford Junior …, priority 2019, published 2022)
Entries after “also recorded” stand apart in the source; their conditions may differ.

Experiments:
[1] = tested on: atrogene and other transcript levels in aged muscles; experiment: Quantitative RT-PCR of treated aged muscle tissue; type: in vivo, mouse
Description: We isolated RNA from MuSCs using the RNeasy Micro Kit (Qiagen). For muscle samples, we snap froze the tissue in liquid nitrogen, homogenized muscles in Trizol (Invitrogen) using the FastPrep FP120 homogenizer (MP Biomedicals), and then isolated RNA. We reverse-transcribed cDNA from total mRNA from each sample using the SensiFAST™ cDNA Synthesis Kit (Bioline). We subjected cDNA to RT-PCR using SYBR Green PCR Master Mix (Applied Biosystems) or TaqMan Assays (Applied Biosystems) in an ABI 7900HT Real-Time PCR System (Applied Biosystems). We cycled samples at 95° C. for 10 min and then 40 cycles at 95° C. for 15 s and 60° C. for 1 min. To quantify relative transcript levels, we used 2-ΔΔCt to compare treated and untreated samples and expressed the results relative to Gapdh.
For SYBR Green qRT-PCR, we used the following primer sequences: Gapdh, 30 forward 5′-[…]-3′, reverse 5′-[…]-3′; Hpgd, forward 5′-[…] -3′, reverse 5′-[…]-3′; Ptger1, forward 5′ […]-3′, reverse 5′-[…]-3′, Ptger2, forward 5′-[…]-3′, reverse 5′-[…]-3′, Cox2, forward, 5′-[…]-3′, reverse 5′-[…]-3′; Fbxo32, forward 5′-[…]-3′, reverse 5′-[…]-3′. For murine senescence markers and senescence associated markers we used the previously described primers (6).
TaqMan Assays (Applied Biosystems) were used to quantify Pax7, Myh, p21, Ptger3 and Ptger4 in samples according to the manufacturer instructions with the TaqMan Universal PCR Master Mix reagent kit (Applied Biosystems). Transcript levels were expressed relative to Gapdh levels. For SYBR Green qPCR, Gapdh qPCR was used to normalize input cDNA samples. For Taqman qPCR, multiplex qPCR enabled target signals (FAM) to be normalized individually by their internal Gapdh signals (VIC).
We isolated RNA from MuSCs, myoblasts and myotubes using the RNeasy Kit (Qiagen). Muscle samples were snap frozen in liquid nitrogen, then homogenized in Trizol (Invitrogen) using the FastPrep FP120 homogenizer (MP Biomedicals) before isolating RNA. We reverse-transcribed cDNA from total mRNA from each sample using the SensiFAST™ cDNA Synthesis Kit (Bioline). We subjected cDNA to RT-PCR using SYBR Green PCR Master Mix (Applied Biosystems) or TaqMan Assays (Applied Biosystems) in an ABI 7900HT Real-Time PCR System (Applied Biosystems). […] To quantify relative transcript levels, we used 2-ΔΔCt to compare treated and untreated samples and expressed the results relative to Gapdh. […]
For murine senescence markers and senescence associated markers we used the previously described primers (2). TaqMan Assays (Applied Biosystems) were used to quantify p21, Mstn, Ptger3 and Ptger4 in samples according to the manufacturer instructions with the TaqMan Universal PCR Master Mix reagent kit (Applied Biosystems). […] Mitochondrial copy number was quantified by using method and primers described previously (14).

myotubes = experiment: Differentiated (starved) cultured myotubes: Atrogin1 expression and diameter; type: cell-based, mouse; details: starved (24 hr) or non-starved myotubes; PGE2 10 ng/ml, SW 1 μM; listed as SW
Method: For myotubes we performed fixation using 4% PFA, blocking and permeabilization using PBS/1% BSA/0.1% Triton X-100 and staining with primary antibodies anti-MyHC (Thermo Fisher Scientific, catalog #14-6503-82, clone MF-20, 1:500) and then with AlexaFluor secondary Antibodies (Jackson ImmunoResearch Laboratories, 1:500). We counterstained nuclei with DAPI (Invitrogen).
Primary myoblasts were grown in myogenic cell culture medium containing DMEM/F10 (50:50), 15% FBS, 2.5 ng ml-1 fibroblast growth factor-2 and 1% penicillin-streptomycin. For differentiation experiments, confluent myoblasts were grown in medium containing 5% horse serum, DMEM. […] Myoblasts were isolated from EP4^fl/fl mice and received either a mCherry/Cre lentivirus or a mock infection as previously described (5).
For cultured myotubes we performed fixation using 4% PFA, blocking and permeabilization using PBS/1% BSA/0.1% Triton X-100 and staining with primary antibodies anti-MYH (Thermo Fisher Scientific, catalog #14-6503-82, clone MF-20, 1:500) and then with AlexaFluor secondary Antibodies (Jackson ImmunoResearch Laboratories, 1:500). We counterstained nuclei with DAPI (Invitrogen). We acquired images using the KEYENCE BZ-X700 all-in-one fluorescence microscope (Keyence) with 20x/0.75 N.A. objectives. We analyzed the fiber area using the Keyence Advanced Analysis Software. For fiber area the entire maximum cross-sectional area of the muscle was quantified or at least 10 fields of LAMININ or WGA stained myofiber cross-sections encompassing over 400 myofibers were captured for each mouse as above. For fiber typing analysis, the MATLAB application SMASH-Semi-Automatic Muscle Analysis Using Segmentation of Histology, was used as previously described (12). Data analyses were blinded. The researchers performing the imaging acquisition and scoring were unaware of treatment condition given to sample groups analyzed.
Primary murine myoblasts were grown in myogenic cell culture medium containing DMEM/F10 (50:50), 15% FBS, 2.5 ng ml^−1 fibroblast growth factor-2 and 1% penicillin-streptomycin. […] For differentiation experiments, confluent myoblasts were grown in medium containing 5% horse serum, DMEM.

CCCC[S+]([O-])c1sc2nc(-c3cccs3)cc(-c3ccccc3)c2c1N (centres unmarked) [SW033291, 2-(butylsulfinyl)-4-phenyl-6-(thiophen-2-yl)thieno[2,3-b]pyridin-3-amine]
other aging, inflammatory and autophagy markers ([1]; aged mice, SW treatment): no significant changes | Pgc1α mRNA level ([1]; aged muscles, SW treatment): restored to that seen in young muscles | expression of Fbxo32 (Atrogin1) at the mRNA level ([1]; aged muscles, SW treatment): decreased expression | expression of atrogenes (Atrogin-1, MuRF1, Musa1, Smart) and Traf6 by RT-qPCR ([1]; aged muscles, SW vs vehicle): diminished | myotube diameter (myotubes): no increase; also recorded: no effect
